According to US20110312961A1, “2,5-Disubstituted Morpholine Orexin REceptor Antagonists” (priority 2008, published 2011):

Columns and labels:
normal rats = assay: Novel object recognition (NOR) task; type: in vivo, rat; conditions: for Minimum Effective Dose (MED): oral, rats (FIG. 2)
Procedure: Memory was assessed by using the three-trial novel object recognition test. On the first day (exploratory trial), rats were allowed to explore an open arena (44.5×44.5×30.5 cm) for 6 min. On the second day (acquisition trial), rats were allowed to explore the same arena in the presence of two identical objects (both object A) for 3 minutes. On the third day (retention or recall trial), performance was evaluated by allowing the same animal to re-explore the arena for 3 minutes in the presence of two different objects: the familiar object A and a novel object B. An inter-trial interval of 24 hours was imposed between the three NOR trials. Recognition memory was assessed by comparing the time spent exploring a novel (object B) versus a familiar (object A) object during the recall trial. Recognition index was assessed for each animal and expressed as a ratio ((time B/time A+time B)×100).

[1] = system: STZ rat model of diabetic neuropathy; assay: Streptozotocin (STZ)-induced diabetic neuropathy, Von Frey allodynia; type: in vivo; conditions: for allodynia (Von Frey): 30 minutes after administration
Source text: Peripheral neuropathy, a major complication of diabetes, often results in spontaneous pain or the perception of pain from contact with a normally non-noxious stimulus. Such neuropathic pain is experienced by 20-24% of diabetic patients, or approximately 30 million people worldwide (Schmader, 2002). The streptozotocin (STZ)-induced diabetes model in rats provides a means to evaluate the efficacy of test compounds that offer therapeutic potential for peripheral neuropathy and to understand their putative mechanism of action. In this model, a single injection of STZ, an antibiotic that mimics clinical diabetes by causing irreversible damage to the pancreatic β and α-cells leads to chronic hyperglycemia, nerve dysfunction and pain sensitivity. The current study utilizes the STZ rat model of diabetic neuropathy to investigate the effects of (2S,3R)—N-2-((3-pyridinyl)methyl)-1-azabicyclo[2.2.2]oct-3-yl)-3,5-difluorobenzamide on mechanical allodynia, an assessment of pain.
Diabetes was induced by a 0.5 ml injection of streptozotocin (60 mg/kg) dissolved in citrate buffer (pH) into the tail vein of each rat The development of diabetes was confirmed by measuring the blood glucose levels (BGL) of all animals on study day 3 (BGL>300 mg/dL). […] These animals were tested again for their BGL at study day 23.
(2S,3R)—N-2-((3-pyridinyl)methyl)-1-azabicyclo[2.2.2]oct-3-yl)-3,5-difluorobenzamide (0.1, 1 or 10 mg/kg p.o.) was administered as a solution of the hydrochloride salt in water once daily starting on study day 14 or study day 16 and continuing through study day 21 or 23, respectively. The control article gabapentin (in 0.9% saline, 150 mg/kg i.p.) was only administered on allodynia test days. Test item, vehicle or control article administration was based on evaluation of allodynia on study day 14. If allodynia was not present on study day 14, the animal was evaluated again at study day 16. Pain response was measured either on study days 14 and 21 or 16 and 23, 30 minutes after Test Item administration.
For the allodynia assessments, Von Frey filaments were used according to the methods of Chaplan and colleagues (1994). Briefly, the rats were placed in an enclosure and positioned on a metal mesh surface, but allowed to move freely. The rats' cabins were covered with red cellophane to diminish environmental distributions. The test began after cessation of exploratory behavior.
When the tip of a Von Frey fiber of given length and diameter was pressed against the skin at right angles, the force of application increases as long as the researcher continued to advance the probe until the fiber bent. After the fiber bent, the probe was advanced, causing the fiber to bend more, but without additional force being applied. The animal would indicate sensation by pulling back its paw. In the absence of a paw withdrawal response to the initially selected filament, a stronger stimulus was presented; in the event of paw withdrawal, the next weaker stimulus was chosen. In this fashion, the resulting pattern of positive and negative responses was used to determine the paw withdrawal threshold.
The set of Von Frey monofilaments provide an approximate logarithmic scale of actual force and a linear scale of perceived intensity. Below is a table showing the force (g) and its corresponding size of monofilaments.
All normally distributed data are presented as means±SEM, as well as the animals' individual values followed by a student T-test (Software: Microsoft® Excel). A p value <0.05 is considered to represent a significant difference. Due to the non-normal distribution of the allodynia data, descriptions of those data are provided as both mean (±SEM) and median values in order to represent their imprecise nature and skewed distribution.

db/db mouse = assay: Murine model of type 2 diabetes mellitus (db/db); type: in vivo
Source text: The db/db mouse, a well established model of type 2 diabetes mellitus, is a leptin-deficient mutant that expresses an obese phenotype and also commonly expresses metabolic symptoms including hyperglycemia, hyperlipidemia and hyperinsulinemia (Halaas et al., 1995 and Lee et al., 1996). This experimental animal model of diabetes was employed in a study designed to determine the effects of (2S,3R)—N-2-((3-pyridinyl)methyl)-1-azabicyclo[2.2.2]oct-3-yl)-3,5-difluorobenzamide on body mass and several additional metabolic parameters.
In this study, (2S,3R)—N-2-((3-pyridinyl)methyl)-1-azabicyclo[2.2.2]oct-3-yl)-3,5-difluorobenzamide was repeatedly administered orally (via gavage) at 1.0 mg/kg once daily starting from the age of approximately 3 weeks and continuing throughout the 7-week study. Nondiabetic heterozygote littermate mice (db/+; designated “Db”) were used as controls. Body weight and food intake were determined twice weekly. The α7 antagonist methyllycaconitine (MLA) was also given concurrently via gavage at 3 mg/kg daily to selected cohorts of db/db (designated “db”) or db/+mice. At the end of the 7-week dosing regimen, total growth rates (overall body weight gain) and average daily food intake were calculated. In addition, glucose levels were assessed in mice fasted overnight. Furthermore, blood sample analytes from mice fasted overnight were collected for measurements of tumor necrosis factor-a (TNF-α), triglycerides and glycosylated hemoglobin (HbA1c). All data are expressed as mean±SEM. For each parameter investigated, differences among all groups were compared by one-way ANOVA with post-hoc Neuman-Keuls multiple comparison test.

[2] = Aqueous solubility of salts (salt screen); type: physicochemical; conditions: free base form

O=C(N[C@@H]1C2CCN(CC2)[C@H]1Cc1cccnc1)c1cc(F)cc(F)c1 [Compound A]
lowest dose with statistically significant effect (normal rats; NOR vs. dose, FIG. 1): 0.1 mg/kg | lowest dose with statistically significant effect (normal rats; NOR, FIGS. 1-4): 0.03 µM/kg | effects observed out to, after dosing (normal rats; NOR, FIGS. 1-4, dose not given in the sentence): ≤ 18 h | lowest dose with statistically significant effect (normal rats; NOR, determination of minimum effective dose, FIG. 2): 0.03 mg/kg | Minimum Effective Dose (MED) (normal rats; NOR, listed as (2S,3R)-N-2-((3-pyridinyl)methyl)-1-azabicyclo[2.2.2]oct-3-yl)-3,5-difluorobenza): MED = 0.084 μmol/kg | Minimum Effective Dose (MED) (normal rats; NOR, listed as (2S,3R)—N-2-((3-pyridinyl)methyl)-1-azabicyclo[2.2.2]oct-3-yl)-3,5-difluorobenza): 0.084 µmol/kg | effect in "recall only" session (normal rats; single oral administration of 0.28 μmol/kg on day 3): demonstrated pro-cognitive effects | allodynia (Von Frey) ([1]; 1 mg/kg p.o., study days 14/16, p<0.01 vs pretreatment, p<0.05 vs Vehicle): inhibited allodynia | allodynia (Von Frey) ([1]; 1 mg/kg p.o., study days 21/23, p=0.012 vs pretreatment): inhibited allodynia | allodynia (Von Frey) ([1]; 10 mg/kg p.o., study days 14/16, p=0.012 vs pretreatment): inhibited allodynia | allodynia (Von Frey) ([1]; 10 mg/kg p.o., study days 21/23, p<0.05 vs Vehicle): inhibited allodynia | diabetic neuropathy pain, Von Frey assessment ([1]; doses of 1 mg/kg and 10 mg/kg compared to Vehicle, FIG. 14): effective in reducing diabetic neuropathy pain | food consumption (db/db mouse; lean (db/+) mice, 1.0 mg/kg oral daily, FIG. 16): unaffected | total body weight gain (db/db mouse; obese db/db mice, 1.0 mg/kg oral daily, 7 weeks, FIG. 15): significantly lower | average food consumption (db/db mouse; obese db/db mice, 1.0 mg/kg oral daily, 7 weeks, vs obese controls, FIG. 16): significantly lower | all parameters measured (db/db mouse; obese db/db mice, 1.0 mg/kg oral once daily, 7 weeks, vs vehicle-treated obese db/db): significant decrease in all parameters measured | fasting plasma glucose levels (db/db mouse; obese mice, 1.0 mg/kg oral daily, 7 weeks, FIG. 17): significantly inhibited | glycosylated HbA1c levels (db/db mouse; obese mice, 1.0 mg/kg oral daily, 7 weeks, FIG. 18): significantly inhibited | pro-inflammatory cytokine TNF alpha (db/db mouse; obese mice, 1.0 mg/kg oral daily, 7 weeks, FIG. 19): significantly reduced | triglyceride levels (db/db mouse; obese mice, 1.0 mg/kg oral daily, 7 weeks, vs vehicle-treated controls, FIG. 20): significantly lower | water solubility [2]: limited water solubility
